The values below come from patent US12648569B2 (priority 2022, dated 2026).

Counter-ions that a name gives are not always drawn.

The test system of assay [1] is Ralstonia solanacearum R.s (MN R.s1). The format is in vivo. The note with it: tomato seedlings, roots soaked 10 min, R.s irrigated after 7 d.
Assay [2] relates to Ralstonia solanacearum MN R.s1 strain. It is filed as in vivo. The note with it: tomato seedlings.

In the case of `O=P([O-])(O)O.[K+]`, in the assay with M173, the Compatibility result is recorded as “Compatible”.

In the case of `N.N.O=S(=O)(O)O` [Ammonium sulfate], in the assay on M173, the Compatibility result is “Compatible”.

Turning to `COC(=O)Nc1nc2ccccc2[nH]1` [Carbendazim], the Compatibility entry in the assay on M173 is recorded as “Compatible”.

Take `N#Cc1c(Cl)c(Cl)c(Cl)c(C#N)c1Cl` [Chlorothalonil]: the Compatibility result with M173 is listed as “Compatible”.

For `CN/C(=N/CC1CCOC1)N[N+](=O)[O-]` (stereo not shown) [Dinotefuran], the Compatibility entry in the assay with M173 was “Compatible”.

For `O=[N+]([O-])c1cc(C(F)(F)F)c(Cl)c([N+](=O)[O-])c1Nc1ncc(C(F)(F)F)cc1Cl` [Fluazinam], in the assay on M173, the Compatibility result was “Compatible”.

For `CCO[PH](=O)O` [Fosetyl-aluminum], the Compatibility entry in the assay on M173 is recorded as “Compatible”.

`CC1(C)[C@H](C(=O)O[C@H](C#N)c2cccc(Oc3ccccc3)c2)[C@@H]1/C=C(\Cl)C(F)(F)F` [Gamma-cyhalothrin]: in the assay on M173, the Compatibility result is recorded as “Compatible”.

As for `COCC(=O)N(c1c(C)cccc1C)[C@H](C)C(=O)OC` [Metalaxyl-M], the Compatibility result in the assay with M173 is listed as “Compatible”.

For the molecule `CCCOC(=O)NCCCN(C)C` [Propamocarb hydrochloride], the Compatibility result in the assay with M173 is listed as “Compatible”.

On to `O=[N+]([O-])c1c(Cl)c(Cl)c(Cl)c(Cl)c1Cl` [Quintozene], for which, in the assay on M173, the Compatibility result is recorded as “Compatible”.

As for `CN1COCN(Cc2cnc(Cl)s2)/C1=N\[N+](=O)[O-]` [Thiamethoxam], the Compatibility result in the assay on M173 was “Compatible”.

Take `CN(C)C(=S)SSC(=S)N(C)C` [Thiram]: the Compatibility result with M173 is recorded as “Compatible”.

In the case of `NC(N)=O` [Urea], the Compatibility entry in the assay with M173 was “Compatible”.

Turning to neophytomycin [Positive control group], in assay [1], the Control effect/% is given as 37.30%, the Disease index/% was determined as 14.00% and the Morbidity/% came out at 16.70%. Also, the Mortality/% in assay [2] (leaf cutting with scissors soaked in agent + R.s suspension, 7 d at 30° C.) is 16.67%. In assay [2] (leaf cutting, relative to negative control), this molecule yielded a Relative control effect/% of 81.01%.
